The results in this text go back to PubChem BioAssay (NCI).

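48-hour exposure; five concentrations; linearly interpolated endpoints. TGI marks complete inhibition of growth.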 Where a SMILES comes first, the peptide text is derived from it. [ ]: non-standard residue; d: D form. The star is where a group is joined. Cbz = O=C(OCc1ccccc1)*; Aib = CC(C)(N)C(=O)O; OBn = c1ccc(CO*)cc1 Some results are limits rather than exact numbers.

Assay in all cases: NCI tumour cell line growth inhibition, 48 h
The subject of assay [1] is 786-0 renal.
For assay [2], the system named is SW-620 colon.
Assay [3] relates to MOLT-4 leukemia.
For assay [4], the system named is HCT-116 colon.
The test system of assay [5] is COLO 205 colon.
The test system of assay [6] is SF-295 CNS.
The test system of assay [7] is MDA-MB-231 breast.
Assay [8] relates to RXF 393 renal.
The test system of assay [9] is UACC-62 melanoma.
The subject of assay [10] is HS 578T breast.

On to `CSc1nc2c(c(N(C)C)n1)C(O)n1c(nc3ccccc31)S2` (centres undefined), for which the TGI in assay [1] was above 100 µM; in assay [2] it was above 100 µM; in assay [3], above 100 µM; in [4], above 62.1 µM; in assay [5] it was above 100 µM; in assay [6], above 100 µM. Also, the TGI in assay [7] is above 100 µM; in assay [8], 65.3 µM; in [9], above 100 µM; in assay [10] it was above 70.8 µM.

As to `CC(C)(C)N=C(N)NC#N`, the TGI in assay [1], in assay [2], in assay [3], in [4], in assay [5] and in assay [7] was above 100 µM throughout. The TGI in assay [8], in assay [9] and in [10] was above 100 µM throughout.

With `c1ccc(C2=NOC(c3ccccc3)N2C23CC4CC(CC(C4)C2)C3)cc1` (centres undefined), the TGI in assay [1], in assay [2], in [3], in [4], in [5] and in assay [6] was above 10 µM throughout. Besides, the TGI in [7], in [8], in assay [9] and in [10] was above 10 µM in each case.

For the compound `COc1cc(O)c2c(=O)c(OC)c(-c3ccc(OC)c(O)c3)oc2c1`, the TGI in [1], in [2], in assay [3], in [4], in assay [5] and in assay [6] was above 100 µM in each case. Besides, the TGI in assay [7], in [8], in assay [9] and in [10] was above 100 µM in each case.

For `Cc1c2c(c(C)n1-c1ccccc1)C(=O)N(CCN1CCN(c3cccc(C(F)(F)F)c3)CC1)C2=O`, the TGI in [1], in assay [3], in assay [4], in assay [5], in assay [6] and in assay [7] was above 100 µM each time. Moreover, the TGI in assay [8], in assay [9] and in assay [10] was above 100 µM throughout.

For `CCOC(=O)C(NC(=O)CC)(N1CCN(c2cc3c(cc2F)c(=O)c(C(=O)O)cn3C2CC2)CC1)C(F)(F)F` (centres undefined), the TGI in assay [1], in assay [2], in [3], in [4], in assay [5] and in assay [6] was above 100 µM in each case. Also, the TGI in assay [7], in assay [8], in assay [9] and in assay [10] was above 100 µM in each case.

On to `C=C(C)CNCCN`, for which the TGI in [1], in assay [2], in assay [3], in [4], in [6] and in assay [7] was above 100 µM throughout. In addition, the TGI in [8], in assay [9] and in [10] was above 100 µM each time.

For `C[C@@H]1CCC2[C@@H](C)[C@@H](O[C@H]3O[C@@H]4O[C@@]5(C)CCC6[C@H](C)CCC([C@H]3C)[C@]64OO5)O[C@@H]3O[C@@]4(C)CCC1[C@@]23OO4` (some centres undefined), the TGI in assay [1], in assay [2], in assay [3], in [4], in [5] and in assay [6] was above 25 µM each time. Also, the TGI in [7], in assay [8], in assay [9] and in [10] was above 25 µM throughout.

As to `CC(NC(=O)C(C)(C)NC(=O)C(CC(=O)OCc1ccccc1)NC(=O)OCc1ccccc1)C(N)=O` (centres undefined) (Cbz-Asp(OBn)-[Aib]-Ala-NH2; configuration not given here), the TGI in assay [1], in [2], in assay [3], in assay [4], in assay [5] and in assay [6] was above 100 µM throughout. The TGI in assay [7], in [8], in [9] and in assay [10] was above 100 µM each time.

For the compound `CC(C)(C)c1ccc2c(c1)C#Cc1cc3c(cc1OCCCO2)C#Cc1cc(C(C)(C)C)ccc1OCCCO3`, the TGI in assay [1], in assay [2], in [3], in assay [4], in assay [5] and in assay [6] was above 100 µM throughout. In addition, the TGI in assay [7], in [8], in assay [9] and in assay [10] was above 100 µM in each case.

`CNc1[nH]c(=S)nc2sc3c(c12)CCCC3`: the TGI in assay [1], in [2], in [3], in assay [4], in assay [5] and in assay [6] was above 75 µM in each case. For the same compound, the TGI in assay [7], in assay [8], in assay [9] and in assay [10] was above 75 µM in each case.

For `Nc1ncc2c(n1)-c1ccccc1OC2N1CCCC1` (centres undefined), the TGI in assay [1], in assay [2], in assay [3], in assay [4], in assay [5] and in assay [6] was above 100 µM each time. Besides, the TGI in [7], in assay [8], in assay [9] and in assay [10] was above 100 µM each time.

As for `CN1CC[C@]2(c3cccc(O)c3)CC(=O)/C(=C/c3ccccc3)[C@@H]1C2`, the TGI in [1] is 7.12 µM; in assay [2], 6.93 µM; in [3], 5.59 µM; in assay [4], 5.94 µM; in assay [5], 18.1 µM; in assay [6] it was 13.2 µM. For the same compound, the values for the TGI in [7], in assay [8] and in [10] were 7.29 µM, 4.18 µM and 13 µM, respectively.

As to `CC1=C(C#N)c2nc3ccccc3n2C(=O)C1(C)CCO` (centres undefined), the TGI in assay [1], in assay [2], in assay [4], in [5], in assay [6] and in assay [7] was above 100 µM in each case. Besides, the TGI in [8], in assay [9] and in assay [10] was above 100 µM throughout.

For the compound `Cc1cc(C)nc(NC(=S)Nc2ccc([N+](=O)[O-])cc2)c1`, the TGI in assay [1], in [2], in assay [3], in assay [4], in assay [5] and in [7] was above 100 µM each time. Moreover, the TGI in [8], in assay [9] and in assay [10] was above 100 µM in each case.

For the compound `O=C1CSC2(CC(/C=C/c3cccs3)=NN2c2cccc(S(=O)(=O)O)c2)N1c1nc2ccccc2s1` (centres undefined), the TGI in [1], in assay [2], in [3], in assay [4], in [5] and in assay [7] was above 100 µM in each case. Further, the TGI in assay [8], in [9] and in [10] was above 100 µM in each case.

`c1ccc(C(C(=Nc2ccc(Cc3ccc(N=C(C(c4ccccc4)c4ccccc4)N4CC4)cc3)cc2)N2CC2)c2ccccc2)cc1`: the TGI in assay [1] was 65.5 µM; in assay [2], 20.1 µM; in assay [4] it was above 100 µM; in [5], 16.7 µM; in assay [6] it was 27.5 µM; in [7], 29.2 µM. In addition, the values for the TGI in [8], in assay [9] and in [10] were 16.1 µM, 21.7 µM and 35.7 µM, respectively.

For `CO/N=C(/C(=O)OC)c1ccccc1COc1ccccc1C(F)(F)F`, the TGI in assay [1], in [3], in assay [4], in assay [5], in assay [6] and in [7] was above 100 µM throughout. Also, the TGI in [8], in assay [9] and in assay [10] was above 100 µM each time.

Consider `COc1cccc2c1OC(c1cccc3ccccc13)C([N+](=O)[O-])=C2` (centres undefined), for which the TGI in [1] was 3.95 µM; in assay [3] it was 5.71 µM; in assay [4], 2.45 µM; in assay [5], 5.72 µM; in assay [6] it was 4.56 µM; in [7], 5.01 µM. The TGI turned out to be 2.58 µM in assay [8], 2.35 µM in assay [9] and 11 µM in [10].

With `CCN(CC)c1ccc(/C=C/c2ccnc3ccccc23)cc1`, the TGI in assay [1], in [2], in assay [4], in [5], in assay [6] and in assay [7] was above 100 µM throughout. The TGI in assay [8], in [9] and in assay [10] was above 100 µM throughout.
